In ChEMBL document CHEMBL3739376, “Synthesis and biological evaluation of N-(4-phenylthiazol-2-yl)cinnamamide derivatives as novel potential anti-tumor agents” (Medchemcomm, 2015):
The source made the active and inactive calls. No cut-off for these calls is given here.

Experiments:
K562 [1] = test: Cytotoxicity against human K562 cells assessed as inhibition of cell proliferation after 96 hrs by MTT assay; assay type: functional, cell-based; conditions: K562, 96 h
[2] = Cytotoxicity against human OCI-LY1 cells assessed as inhibition of cell proliferation after 96 hrs by MTT assay; assay type: functional, cell-based; conditions: OCI-Ly1, 96 h
Bel-7402 [3] = test: Induction of apoptosis in human Bel7402 cells after 48 hrs by propidium iodide staining-based fluorescence microscopic analysis; assay type: functional, cell-based
MCF7 = test: Cytotoxicity against human MCF7 cells assessed as inhibition of cell proliferation after 96 hrs by MTT assay; assay type: functional, cell-based; conditions: MCF7, 96 h
MDA-MB-468 = test: Cytotoxicity against human MDA-MB-468 cells assessed as inhibition of cell proliferation after 96 hrs by MTT assay; assay type: functional, cell-based; conditions: MDA-MB-468, 96 h
Jurkat [4] = test: Induction of apoptosis in human Jurkat cells at 3.3 uM after 48 hrs by propidium iodide staining-based fluorescence microscopic analysis; assay type: functional
[5] = Cytotoxicity against human LO2 cells assessed as inhibition of cell proliferation after 96 hrs by MTT assay; assay type: cell-based; conditions: L02, 96 h
[6] = Cytotoxicity against human MV411 cells assessed as inhibition of cell proliferation after 96 hrs by MTT assay; assay type: functional, cell-based; conditions: MV4-11, 96 h
Bel-7402 [7] = test: Induction of apoptosis in human Bel7402 cells at 0.37 uM after 48 hrs by propidium iodide staining-based fluorescence microscopic analysis; assay type: functional
Bel-7402 [8] = test: Induction of apoptosis in human Bel7402 cells at 3.3 uM after 48 hrs by propidium iodide staining-based fluorescence microscopic analysis; assay type: functional
Bel-7402 [9] = test: Induction of apoptosis in human Bel7402 cells assessed as condensed nuclei at 0.37 to 10 uM after 48 hrs by […] staining-based fluorescence microscopic analysis; assay type: functional, cell-based
Bel-7402 [10] = test: Induction of apoptosis in human Bel7402 cells at 10 uM after 48 hrs by propidium iodide staining-based fluorescence microscopic analysis; assay type: functional
[11] = Cytotoxicity against human Bel7402 cells assessed as inhibition of cell proliferation after 96 hrs by MTT assay; assay type: functional, cell-based; conditions: Bel-7402, 96 h
Bel-7402 [12] = test: Induction of apoptosis in human Bel7402 cells at 1.1 uM after 48 hrs by propidium iodide staining-based fluorescence microscopic analysis; assay type: functional
Jurkat [13] = test: Cytotoxicity against human Jurkat cells assessed as inhibition of cell proliferation after 96 hrs by MTT assay; assay type: functional, cell-based
K562 [14] = test: Induction of apoptosis in human K562 cells at 3.3 uM after 48 hrs by propidium iodide staining-based fluorescence microscopic analysis; assay type: functional
HEK293 = test: Cytotoxicity against HEK293 cells assessed as inhibition of cell proliferation after 96 hrs by MTT assay; assay type: cell-based; conditions: Homo sapiens, HEK293, 96 h
Vero = test: Cytotoxicity against african green monkey Vero cells assessed as inhibition of cell proliferation after 96 hrs by MTT assay; assay type: cell-based; conditions: Chlorocebus sabaeus
A549 [15] = test: Cytotoxicity against human A549 cells assessed as inhibition of cell proliferation after 96 hrs by MTT assay; assay type: functional, cell-based; conditions: A549, 96 h
A549 [16] = test: Induction of apoptosis in human A549 cells at 3.3 uM after 48 hrs by propidium iodide staining-based fluorescence microscopic analysis; assay type: functional

COc1cccc(-c2csc(NC(=O)/C=C/c3ccc(N4CCOCC4)cc3)n2)c1
IC50 (K562 [1]): 25.2 µM

Cc1cc(C)c(-c2csc(NC(=O)/C=C/c3ccncc3)n2)c(C)c1
IC50 (K562 [1]): 9.39 µM

Cc1cccc(-c2csc(NC(=O)/C=C/c3ccc(N4CCOCC4)cc3)n2)c1
IC50 (K562 [1]): 7.51 µM

Cc1ccccc1-c1csc(NC(=O)/C=C/c2ccc(N3CCOCC3)cc2)n1
IC50 (K562 [1]): 3.74 µM

COc1cc(F)c(-c2csc(NC(=O)/C=C/c3ccc(N4CCOCC4)cc3)n2)c(F)c1
IC50 (K562 [1]): 30.3 µM

Cc1cc(C)c(-c2csc(NC(=O)/C=C/c3ccc(C(C)(C)C)cc3)n2)c(C)c1
IC50 [2]: 1.54 µM
Activity (Bel-7402 [3]): Dose-dependent effect
IC50 (MCF7): > 30 µM
IC50 (MDA-MB-468): > 30 µM
Activity (Jurkat [4]): 14.64%
IC50 [5]: > 90 µM
IC50 [6]: 0.11 µM
Activity (Bel-7402 [7]): 5.37%
Activity (Bel-7402 [8]): 48.15%
Activity (Bel-7402 [9]): Active
Activity (Bel-7402 [10]): 61.35%
IC50 (K562 [1]): 0.18 µM
IC50 [11]: 0.74 µM
Activity (Bel-7402 [12]): 25.37%
IC50 (Jurkat [13]): 0.035 µM
Activity (K562 [14]): 21.04%
IC50 (HEK293): > 90 µM
IC50 (Vero): > 90 µM
IC50 (A549 [15]): 0.27 µM
Activity (A549 [16]): 23.13%

Cc1cc(C)c(-c2csc(NC(=O)/C=C/c3ccc(Br)cc3)n2)c(C)c1
IC50 (K562 [1]): 4.59 µM

COc1ccccc1-c1csc(NC(=O)/C=C/c2ccc(N3CCOCC3)cc2)n1
IC50 (K562 [1]): > 90 µM

Cc1ccc(-c2csc(NC(=O)/C=C/c3ccc(N4CCOCC4)cc3)n2)cc1
IC50 (K562 [1]): > 90 µM

O=C(/C=C/c1ccc(N2CCOCC2)cc1)Nc1nc(-c2cccc(F)c2)cs1
IC50 (K562 [1]): 5.73 µM

Cc1cc(C)c(-c2csc(NC(=O)/C=C/c3ccc(N4CCCCC4)cc3)n2)c(C)c1
IC50 (K562 [1]): 4.06 µM

CCOc1ccc(/C=C/C(=O)Nc2nc(-c3c(C)cc(C)cc3C)cs2)cc1
IC50 (K562 [1]): 2.48 µM

COc1ccc(-c2csc(NC(=O)/C=C/c3ccc(N4CCOCC4)cc3)n2)cc1
IC50 (K562 [1]): 14.6 µM

Cc1cc(C)c(-c2csc(NC(=O)/C=C/c3ccc(N4CCOCC4)cc3)n2)c(C)c1
IC50 [2]: 11.7 µM
IC50 (MCF7): 20 µM
IC50 (MDA-MB-468): > 30 µM
IC50 [5]: > 90 µM
IC50 [6]: 6.42 µM
IC50 (K562 [1]): 0.61 µM
IC50 [11]: 10.6 µM
IC50 (Jurkat [13]): 9.05 µM
IC50 (HEK293): > 90 µM
IC50 (Vero): > 90 µM
IC50 (A549 [15]): 4.29 µM

Cc1cc(C)c(-c2csc(NC(=O)/C=C/c3ccc(Cl)c(C(F)(F)F)c3)n2)c(C)c1
IC50 (K562 [1]): 3.06 µM

COCCOc1ccc(/C=C/C(=O)Nc2nc(-c3c(C)cc(C)cc3C)cs2)cc1
IC50 (K562 [1]): 1.49 µM

Cc1cc(C)c(-c2csc(NC(=O)/C=C/c3ccc(C(F)(F)F)cc3)n2)c(C)c1
IC50 [2]: 3.69 µM
IC50 (MCF7): > 30 µM
IC50 (MDA-MB-468): 1.53 µM
IC50 [5]: > 90 µM
IC50 [6]: 3.65 µM
IC50 (K562 [1]): 0.48 µM
IC50 [11]: 34.1 µM
IC50 (Jurkat [13]): 1.15 µM
IC50 (HEK293): > 90 µM
IC50 (Vero): > 90 µM
IC50 (A549 [15]): 0.2 µM

COc1ccc(/C=C/C(=O)Nc2nc(-c3c(C)cc(C)cc3C)cs2)cc1
IC50 (K562 [1]): 4.16 µM

COc1cc(C)c(-c2csc(NC(=O)/C=C/c3ccc(N4CCOCC4)cc3)n2)c(C)c1
IC50 [2]: > 30 µM
IC50 (MCF7): 1.45 µM
IC50 (MDA-MB-468): > 30 µM
IC50 [5]: > 90 µM
IC50 [6]: 2.73 µM
IC50 (K562 [1]): 1 µM
IC50 [11]: 9.65 µM
IC50 (Jurkat [13]): 1.24 µM
IC50 (HEK293): > 90 µM
IC50 (Vero): > 90 µM
IC50 (A549 [15]): 1.56 µM

Cc1cc(C)c(-c2csc(NC(=O)/C=C/c3ccc(C4CC4)cc3)n2)c(C)c1
IC50 [2]: 1.63 µM
IC50 (MCF7): 7.76 µM
IC50 (MDA-MB-468): 15.7 µM
IC50 [5]: > 90 µM
IC50 [6]: 1.41 µM
IC50 (K562 [1]): 0.38 µM
IC50 [11]: 6.58 µM
IC50 (Jurkat [13]): 1.24 µM
IC50 (HEK293): > 90 µM
IC50 (Vero): > 90 µM
IC50 (A549 [15]): 1.17 µM

O=C(/C=C/c1ccc(N2CCOCC2)cc1)Nc1nc(-c2c(F)cc(F)cc2F)cs1
IC50 (K562 [1]): 5.15 µM

O=C(/C=C/c1ccc(N2CCOCC2)cc1)Nc1nc(-c2ccccc2)cs1
IC50 (K562 [1]): 12.6 µM

CC(=O)O[C@H]1C(=O)[C@@]2(C)[C@H]([C@H](OC(=O)c3ccccc3)[C@]3(O)C[C@H](OC(=O)[C@H](O)[C@@H](NC(=O)c4ccccc4)c4ccccc4)C(C)=C1C3(C)C)[C@]1(OC(C)=O)CO[C@@H]1C[C@@H]2O [PACLITAXEL]
IC50 [2]: 0.18 µM
IC50 (MDA-MB-468): 0.31 µM
IC50 [6]: 0.75 µM
IC50 (K562 [1]): 1.26 µM
IC50 [11]: > 10 µM
IC50 (Jurkat [13]): 0.69 µM
IC50 (A549 [15]): 0.74 µM

Cc1ccc(-c2csc(NC(=O)/C=C/c3ccc(N4CCOCC4)cc3)n2)c(C)c1
IC50 (K562 [1]): 5.38 µM

Cc1cc(C)c(-c2csc(NC(=O)/C=C/c3ccc(F)cc3)n2)c(C)c1
IC50 (K562 [1]): 14 µM

O=C(/C=C/c1ccc(N2CCOCC2)cc1)Nc1nc(-c2ccc(F)cc2)cs1
IC50 (K562 [1]): 7.3 µM

CCOc1cc(C)c(-c2csc(NC(=O)/C=C/c3ccc(N4CCOCC4)cc3)n2)c(C)c1
IC50 (K562 [1]): 2.09 µM

O=C(/C=C/c1ccc(N2CCOCC2)cc1)Nc1nc(-c2ccccc2F)cs1
IC50 (K562 [1]): 4.18 µM

Cc1ccc(/C=C/C(=O)Nc2nc(-c3c(C)cc(C)cc3C)cs2)cc1
IC50 (K562 [1]): 7.88 µM

COc1cc(/C=C/C(=O)Nc2nc(-c3c(C)cc(C)cc3C)cs2)cc(OC)c1OC
IC50 (K562 [1]): 11.8 µM

Cc1cc(C)cc(-c2csc(NC(=O)/C=C/c3ccc(N4CCOCC4)cc3)n2)c1
IC50 (K562 [1]): > 90 µM

Cc1cc(C)c(-c2csc(NC(=O)/C=C/c3ccccc3)n2)c(C)c1
IC50 (K562 [1]): 40.4 µM

Cc1cc(C)c(-c2csc(NC(=O)/C=C/c3ccc([N+](=O)[O-])cc3)n2)c(C)c1
IC50 (K562 [1]): 32.2 µM
